Results published in ChEMBL document CHEMBL4699440, “Comprehensive review on the anti-bacterial activity of 1,2,3-triazole hybrids” (Eur J Med Chem, 2019).
Values after ≈ are worked out from the molar mass of the structure shown.

Columns and labels:
Proteus vulgaris = assay: Antibacterial activity against Proteus vulgaris ATCC […] incubated for 24 hrs by broth dilution method; type: functional
Bacillus spizizenii = assay: Antibacterial activity against Bacillus subtilis ATCC 6633 incubated for 24 hrs by broth dilution method; type: functional
Escherichia coli [1] = assay: Antibacterial activity against Escherichia coli ATCC 25922 incubated for 24 hrs by broth dilution method; type: functional
Staphylococcus aureus [2] = assay: Antibacterial activity against Staphylococcus aureus ATCC 9144 incubated for 24 hrs by broth dilution method; type: functional
Enterococcus faecalis = assay: Antibacterial activity against Enterococcus faecalis MTCC 439 incubated overnight by broth dilution technique; type: functional, organism-based
Streptococcus pneumoniae = assay: Antibacterial activity against Streptococcus pneumoniae MTCC 655 incubated overnight by broth dilution technique; type: functional, organism-based
Escherichia coli [3] = assay: Antibacterial activity against Escherichia coli ATCC 25922 incubated overnight by broth dilution technique; type: functional, organism-based
Pseudomonas aeruginosa [4] = assay: Antibacterial activity against Pseudomonas aeruginosa MTCC 2453 incubated overnight by broth dilution technique; type: functional, organism-based
Klebsiella pneumoniae = assay: Antibacterial activity against Klebsiella pneumoniae ATCC 700603 incubated overnight by broth dilution technique; type: functional, organism-based
Salmonella enterica = assay: Antibacterial activity against Salmonella enterica MTCC 3224 incubated overnight by broth dilution technique; type: functional, organism-based
Bacillus subtilis [5] = assay: Antibacterial activity against Bacillus subtilis MTCC 441 incubated for 24 hrs by two-fold serial dilution method; type: functional
Staphylococcus aureus [6] = assay: Antibacterial activity against Staphylococcus aureus MTCC 7443 incubated for 24 hrs by two-fold serial dilution method; type: functional
Candida albicans = assay: Antifungal activity against Candida albicans MTCC 227 incubated for 2 days by microdilution method; type: functional; conditions: MTCC 227, 48 h, time 2 day
Aspergillus brasiliensis = assay: Antifungal activity against Aspergillus brasiliensis MTCC 1344 incubated for 7 days by microdilution method; type: functional; conditions: MTCC 1344, 168 h, time 7 day
Pseudomonas aeruginosa [7] = assay: Antibacterial activity against Pseudomonas aeruginosa MTCC 424 incubated for 24 hrs by two-fold serial dilution method; type: functional
Staphylococcus aureus [8] = assay: Antibacterial activity against inducibly-resistant Staphylococcus aureus; type: functional
Staphylococcus aureus [9] = assay: Antibacterial activity against constitutively-resistant Staphylococcus aureus; type: functional
Staphylococcus aureus [10] = assay: Antibacterial activity against methicillin-resistant Staphylococcus aureus; type: functional
Escherichia coli [11] = assay: Antibacterial activity against Escherichia coli NCIM-2576 incubated for 8 hrs; type: functional
Pseudomonas fluorescens = assay: Antibacterial activity against Pseudomonas fluorescence NCIM-2059 incubated for 8 hrs; type: functional
Staphylococcus aureus [12] = assay: Antibacterial activity against Staphylococcus aureus NCIM-2602 incubated for 12 hrs; type: functional
Bacillus subtilis [13] = assay: Antibacterial activity against Bacillus subtilis NCIM-2162 incubated for 12 hrs; type: functional

Compound | IC50 (Enterococcus faecalis) [µg/mL] | IC50 (Streptococcus pneumoniae) [µg/mL] | IC50 (Escherichia coli [3]) [µg/mL] | IC50 (Pseudomonas aeruginosa [4]) [µg/mL] | IC50 (Klebsiella pneumoniae) [µg/mL] | IC50 (Salmonella enterica) [µg/mL] | other results
GENTAMICIN | – | – | – | – | – | – | MIC (Proteus vulgaris): 1.56 µg/mL; MIC (Bacillus spizizenii): 1.56 µg/mL; MIC (Escherichia coli [1]): 1.56 µg/mL; MIC (Staphylococcus aureus [2]): 1.56 µg/mL
Fc1ccc(-n2cc(COc3cccc4cccnc34)nn2)cc1 | 106 (≈ 331 µM) | 106 (≈ 331 µM) | 106 (≈ 331 µM) | 106 (≈ 331 µM) | 106 (≈ 331 µM) | 106 (≈ 331 µM) | –
COc1ccc(NC(=O)Cn2cc(COc3ccc(OCc4cn(CC(=O)Nc5ccc(OC)cc5)nn4)cc3)nn2)cc1 | – | – | – | – | – | – | MIC (Bacillus subtilis [5]): 0.167 µM (≈ 0.1 µg/mL); MIC (Staphylococcus aureus [6]): 0.167 µM (≈ 0.1 µg/mL); MIC (Candida albicans): 0.167 µM (≈ 0.1 µg/mL); MIC (Aspergillus brasiliensis): 0.167 µM (≈ 0.1 µg/mL); MIC (Pseudomonas aeruginosa [7]): 0.167 µM (≈ 0.1 µg/mL)
Cc1ccc(-n2cc(COc3cccc4cccnc34)nn2)cc1 | 113 (≈ 356 µM) | 113 (≈ 356 µM) | 113 (≈ 356 µM) | 113 (≈ 356 µM) | 113 (≈ 356 µM) | 113 (≈ 356 µM) | –
O=C(/C=C1\C(=O)N(Cc2cn(Cc3ccccc3)nn2)c2ccccc21)c1cc(Cl)cc(Cl)c1OCc1cn(Cc2ccccc2)nn1 | – | – | – | – | – | – | MIC (Proteus vulgaris): 1.56 µg/mL (≈ 2.31 µM); MIC (Bacillus spizizenii): 1.56 µg/mL (≈ 2.31 µM); MIC (Escherichia coli [1]): 1.56 µg/mL (≈ 2.31 µM); MIC (Staphylococcus aureus [2]): 1.56 µg/mL (≈ 2.31 µM)
O=[N+]([O-])c1ccc(-n2cc(COc3cccc4cccnc34)nn2)cc1 | 106 (≈ 305 µM) | 106 (≈ 305 µM) | 106 (≈ 305 µM) | 106 (≈ 305 µM) | 106 (≈ 305 µM) | 106 (≈ 305 µM) | –
Oc1cccc2cccnc12 [OXYQUINOLINE] | 15.6 (≈ 108 µM) | 15.6 (≈ 108 µM) | 15.6 (≈ 108 µM) | 15.6 (≈ 108 µM) | 15.6 (≈ 108 µM) | 15.6 (≈ 108 µM) | –
SPIRAMYCIN | – | – | – | – | – | – | MIC (Staphylococcus aureus [8]): > 256 µg/mL; MIC (Staphylococcus aureus [9]): > 256 µg/mL; MIC (Staphylococcus aureus [10]): > 256 µg/mL
Fc1ccc(-c2cnnn2Cc2csc(-c3ccc(Cl)cc3)n2)cc1 | – | – | – | – | – | – | MIC90 (Escherichia coli [11]): 4.5 µg/mL (≈ 12.1 µM); MIC90 (Pseudomonas fluorescens): 4.5 µg/mL (≈ 12.1 µM); MIC90 (Staphylococcus aureus [12]): 4.5 µg/mL (≈ 12.1 µM); MIC90 (Bacillus subtilis [13]): 4.5 µg/mL (≈ 12.1 µM)
c1ccc(-n2cc(COc3cccc4cccnc34)nn2)cc1 | 106 (≈ 350 µM) | 106 (≈ 350 µM) | 106 (≈ 350 µM) | 106 (≈ 350 µM) | 106 (≈ 350 µM) | 106 (≈ 350 µM) | –
O=C(/C=C1\C(=O)N(Cc2cn(Cc3ccccc3)nn2)c2ccc(Br)cc21)c1cc(Cl)cc(Cl)c1OCc1cn(Cc2ccccc2)nn1 | – | – | – | – | – | – | MIC (Proteus vulgaris): 1.56 µg/mL (≈ 2.06 µM); MIC (Bacillus spizizenii): 1.56 µg/mL (≈ 2.06 µM); MIC (Escherichia coli [1]): 1.56 µg/mL (≈ 2.06 µM); MIC (Staphylococcus aureus [2]): 1.56 µg/mL (≈ 2.06 µM)
O=C(Cn1cc(COc2ccc(OCc3cn(CC(=O)Nc4ccccc4)nn3)cc2)nn1)Nc1ccccc1 | – | – | – | – | – | – | MIC (Bacillus subtilis [5]): 0.0928 µM (≈ 0.05 µg/mL); MIC (Staphylococcus aureus [6]): 0.0928 µM (≈ 0.05 µg/mL); MIC (Candida albicans): 0.0928 µM (≈ 0.05 µg/mL); MIC (Aspergillus brasiliensis): 0.0928 µM (≈ 0.05 µg/mL); MIC (Pseudomonas aeruginosa [7]): 0.0928 µM (≈ 0.05 µg/mL)
